These results are taken from patent US8563542B2 (Cyclacel Limited, priority 2007, dated 2013).

Some results are limits rather than exact numbers.

The target of one test is PLK1 (Homo sapiens, UniProt P53350). The test is described as follows: PLK1 protein kinase assay (CDC25C phosphorylation, [γ-32P]-ATP). It is filed as biochemical.
PLK1, sequence (P53350 whole entry): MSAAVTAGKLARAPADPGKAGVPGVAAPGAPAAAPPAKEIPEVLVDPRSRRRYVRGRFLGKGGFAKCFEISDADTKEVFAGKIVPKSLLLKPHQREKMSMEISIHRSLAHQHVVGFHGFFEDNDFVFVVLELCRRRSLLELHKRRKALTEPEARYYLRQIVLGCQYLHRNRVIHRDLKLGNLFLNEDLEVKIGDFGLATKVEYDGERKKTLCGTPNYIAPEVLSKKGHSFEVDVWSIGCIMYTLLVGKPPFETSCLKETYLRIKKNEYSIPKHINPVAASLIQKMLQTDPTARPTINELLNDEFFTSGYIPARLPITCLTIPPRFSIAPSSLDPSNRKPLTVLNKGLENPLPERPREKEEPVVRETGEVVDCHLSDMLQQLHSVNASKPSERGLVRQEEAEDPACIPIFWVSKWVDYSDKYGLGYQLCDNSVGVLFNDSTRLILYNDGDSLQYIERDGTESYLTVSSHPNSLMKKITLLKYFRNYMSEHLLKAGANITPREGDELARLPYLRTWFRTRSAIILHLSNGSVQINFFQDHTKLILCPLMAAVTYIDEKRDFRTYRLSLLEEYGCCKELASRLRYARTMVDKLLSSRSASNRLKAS
Settings: not given
Regarding `COc1cc(C(=O)NC2CCN(C)CC2)ccc1Nc1ncc2c(n1)N(C1CCCC1)CC(C)C(=O)N2C` (centres unmarked) [compound 20, 4-(9-Cyclopentyl-5,7-dimethyl-6-oxo-6,7,8,9-tetrahydro-5H-pyrimido[4,5-b][1,4]diazepin-2-ylamino)-3-methoxy-N-(1-methyl-piperidin-4-yl)-benzamide], the IC50 is under 100 nM.

The test is the same for the next values; noted with them: Table 1; read-out: PLK1 IC50.
On to `CCC(CC)N1CCC(=O)N(C)c2cnc(Nc3ccc(C(=O)NC4CCN(C)CC4)cc3OC)nc21` [compound 24, 4-[9-(1-Ethyl-propyl)-5-methyl-6-oxo-6,7,8,9-tetrahydro-5H-pyrimido[4,5-b][1,4]diazepin-2-ylamino]-3-methoxy-N-(1-methyl-piperidin-4-yl)-benzamide], for which the IC50 is under 10000 nM.

Still in this test, the particulars now being: Table 2, PLK1 IC50; class symbols; read-out: PLK1 IC50.
Turning to `COc1cc(C(=O)NCc2ccco2)ccc1Nc1ncc2c(n1)N(C1CCCC1)CC1(CCC1)C(=O)N2C` [compound 222, 4-(9-Cyclopentyl-5-methyl-6-oxo-6,7,8,9-tetrahydro-5H-spiro[pyrimido[4,5-b][1,4]diazepin-3,1′-cyclobutane]-2-ylamino)-N-furan-2-ylmethyl-3-methoxy-benzamide], the IC50 was under 1000 nM.

With `CCC(O)CNC(=O)c1ccc(Nc2ncc3c(n2)N(C2CCCC2)CCC(=O)N3C)c(OC)c1` (centres unmarked) [compound 164, 4-(9-Cyclopentyl-5-methyl-6-oxo-6,7,8,9-tetrahydro-5H-pyrimido[4,5-b][1,4]diazepin-2-ylamino)-N-(2-hydroxy-butyl)-3-methoxy-benzamide], the IC50 is under 1000 nM.

For `CCc1cc(C(=O)NC2CCN(C)CC2)ccc1Nc1ncc2c(n1)N(C1CCCC1)CC1(CC1)C(=O)N2C` [compound 261, 4-(9-Cyclopentyl-5-methyl-6-oxo-6,7,8,9-tetrahydro-5H-spiro(pyrimido[4,5-b][1,4]diazepin-3,1′-cyclopropane]-2-ylamino)-3-ethyl-N-(1-methyl-piperidin-4-yl)-benzamide], the 50% inhibitory concentration (IC50) was under 100 nM.

In the case of `COc1cc(C(=O)N[C@H]2c3ccccc3C[C@H]2O)ccc1Nc1ncc2c(n1)N(C1CCCC1)CCC(=O)N2C` [compound 150, 4-(9-Cyclopentyl-5-methyl-6-oxo-6,7,8,9-tetrahydro-5H-pyrimido[4,5-b][1,4]diazepin-2-ylamino)-N-((1S,2R)-2-hydroxy-indan-1-yl)-3-methoxy-benzamide], the IC50 was under 1000 nM.

In the case of `COc1cc(C(=O)NCCN2CCOCC2)ccc1Nc1ncc2c(n1)N(C1CCCC1)CCC(=O)N2C` [compound 203, 4-(9-Cyclopentyl-5-methyl-6-oxo-6,7,8,9-tetrahydro-5H-pyrimido[4,5-b][1,4]diazepin-2-ylamino)-3-methoxy-N-(2-morpholin-4-yl-ethyl)-benzamide], the IC50 is under 1000 nM.

On to `CN1CCC(NC(=O)c2ccc(Nc3ncc4c(n3)N(C3CCCC3)CC3(CC3)C(=O)N4C)c(F)c2)CC1` [compound 323, 4-(9-Cyclopentyl-5-methyl-6-oxo-6,7,8,9-tetrahydro-5H-spiro[pyrimido[4,5-b][1,4]diazepin-3,1′-cyclopropane]-2-ylamino)-3-fluoro-N-(1-methyl-piperidin-4-yl)-benzamide], for which the half-inhibitory concentration (IC50) is under 100 nM.

With `COc1cc(C(=O)NC2CCN(C)CC2)ccc1Nc1ncc2c(n1)N(CC1CCCC1)CCC(=O)N2C` [compound 69, 4-(9-Cyclopentylmethyl-5-methyl-6-oxo-6,7,8,9-tetrahydro-5H-pyrimido[4,5-b][1,4]diazepin-2-ylamino)-3-methoxy-N-(1-methyl-piperidin-4-yl)-benzamide], the IC50 was under 1000 nM.

As for `COc1cc(C(=O)O)ccc1Nc1ncc2c(n1)N(CC1CC1)CC(C)(C)C(=O)N2C` [compound 275, 4-(9-Cyclopropylmethyl-5,7,7-trimethyl-6-oxo-6,7,8,9-tetrahydro-5H-pyrimido[4,5-b][1,4]diazepin-2-ylamino)-3-methoxy-benzoic acid], the 50% inhibitory concentration (IC50) was under 1000 nM.

As to `CN1C(=O)CCN(C2CCCC2)c2nc(NCc3cc4ccccc4s3)ncc21` [compound 129, 2-[(Benzo[b]thiophen-2-ylmethyl)-amino]-9-cyclopentyl-5-methyl-5,7,8,9-tetrahydro-pyrimido[4,5-b][1,4]diazepin-6-one], the IC50 was under 10000 nM.

As to `COc1cc(C(=O)N(C)CCCN(C)C)ccc1Nc1ncc2c(n1)N(C1CCCC1)CCC(=O)N2C` [compound 147, 4-(9-Cyclopentyl-5-methyl-6-oxo-6,7,8,9-tetrahydro-5H-pyrimido[4,5-b][1,4]diazepin-2-ylamino)-N-(3-dimethylamino-propyl)-3-methoxy-N-methyl-benzamide], the IC50 was under 1000 nM.

As for `COc1cc(C(=O)NC2CCCC2)ccc1Nc1ncc2c(n1)N(CC1CC1)CCC(=O)N2C` [compound 248, N-Cyclopentyl-4-(9-cyclopropylmethyl-5-methyl-6-oxo-6,7,8,9-tetrahydro-5H-pyrimido[4,5-b][1,4]diazepin-2-ylamino)-3-methoxy-benzamide], the IC50 was under 1000 nM.

On to `COc1cc(C(=O)NC2CC(C)(C)N(C)C(C)(C)C2)ccc1Nc1ncc2c(n1)N(CC(C)C)CCC(=O)N2C` [compound 306, 4-(9-Isobutyl-5-methyl-6-oxo-6,7,8,9-tetrahydro-5H-pyrimido[4,5-b][1,4]diazepin-2-ylamino)-3-methoxy-N-(1,2,2,6,6-pentamethyl-piperidin-4-yl)-benzamide], for which the IC50 was under 1000 nM.

With `COc1cc(C(=O)NC2CCN(Cc3ccccc3)CC2)ccc1Nc1ncc2c(n1)N(CC(C)C)CCC(=O)N2C` [compound 304, N-(1-Benzyl-piperidin-4-yl)-4-(9-isobutyl-5-methyl-6-oxo-6,7,8,9-tetrahydro-5H-pyrimido[4,5-b][1,4]diazepin-2-ylamino)-3-methoxy-benzamide], the IC50 was under 1000 nM.

In the case of `COc1cc(C(=O)NC2CCN(C)CC2)ccc1Nc1ncc2c(n1)N(CCC(=O)NCCCN(C)C)CCC(=O)N2C` [compound 226, 4-{9-[2-(3-Dimethylamino-propylcarbamoyl)-ethyl]-5-methyl-6-oxo-6,7,8,9-tetrahydro-5H-pyrimido[4,5-b][1,4]diazepin-2-ylamino}-3-methoxy-N-(1-methyl-piperidin-4-yl)-benzamide], the IC50 was under 1000 nM.

Regarding `CN1CCC(NC(=O)c2ccc(Nc3ncc4c(n3)N(C3CCCC3)CCC(=O)N4C)c(Cl)c2)CC1` [compound 214, 3-Chloro-4-(9-cyclopentyl-5-methyl-6-oxo-6,7,8,9-tetrahydro-5H-pyrimido[4,5-b][1,4]diazepin-2-ylamino)-N-(1-methyl-piperidin-4-yl)-benzamide], the half-inhibitory concentration (IC50) is under 100 nM.

As to `COc1cc(C(=O)NC2CC(C)(C)N(C)C(C)(C)C2)ccc1Nc1ncc2c(n1)N(CC1CC1)CCC(=O)N2C` [compound 244, 4-(9-Cyclopropylmethyl-5-methyl-6-oxo-6,7,8,9-tetrahydro-5H-pyrimido[4,5-b][1,4]diazepin-2-ylamino)-3-methoxy-N-(1,2,2,6,6-pentamethyl-piperidin-4-yl)-benzamide], the half-maximal inhibitory concentration (IC50) is under 1000 nM.

With `COc1cc(C(=O)NC2CCCN(C)C2)ccc1Nc1ncc2c(n1)N(C1CCCC1)CC1(CC1)C(=O)N2C` (centres unmarked) [compound 187, 4-(9-Cyclopentyl-5-methyl-6-oxo-6,7,8,9-tetrahydro-5H-spiro[pyrimido[4,5-b][1,4]diazepin-3,1-cyclopropane]-2-ylamino)-3-methoxy-N-(1-methyl-piperidin-3-yl)-benzamide], the IC50 was under 100 nM.

Turning to `CN1CCC(NC(=O)c2ccc(Nc3ncc4c(n3)N(C3CCCC3)CCC(=O)N4C)c(O)c2)CC1` [compound 228, 4-(9-Cyclopentyl-5-methyl-6-oxo-6,7,8,9-tetrahydro-5H-pyrimido[4,5-b][1,4]diazepin-2-ylamino)-3-hydroxy-N-(1-methyl-piperidin-4-yl)-benzamide], the IC50 was under 100 nM.

Turning to `COc1cc(C(=O)NC2CCN(Cc3ccccc3)CC2)ccc1Nc1ncc2c(n1)N(C1CCCC1)CC1(CC1)C(=O)N2C` [compound 252, 4-(9-Cyclopentyl-5-methyl-6-oxo-6,7,8,9-tetrahydro-5H-spiro[pyrimido[4,5-b][1,4]diazepin-3,1′-cyclopropane]-2-ylamino)-3-methoxy-N-(1-benzylpiperidin-4-yl)-benzamide], the IC50 is under 1000 nM.

Consider `CN1C(=O)CCN(C2CCCC2)c2nc(NC(=O)c3ccccc3)ncc21` [compound 193, N-(9-Cyclopentyl-5-methyl-6-oxo-6,7,8,9-tetrahydro-5H-pyrimido[4,5-b][1,4]diazepin-2-yl)-benzamide], for which the half-maximal inhibitory concentration (IC50) was under 10000 nM.

On to `COc1cc(C(=O)NC(C)(C)CN2CCCC2)ccc1Nc1ncc2c(n1)N(C1CCCC1)CCC(=O)N2C` [compound 155, 4-(9-Cyclopentyl-5-methyl-6-oxo-6,7,8,9-tetrahydro-5H-pyrimido[4,5-b][1,4]diazepin-2-ylamino)-N-(1,1-dimethyl-2-pyrrolidin-1-yl-ethyl)-3-methoxy-benzamide], for which the 50% inhibitory concentration (IC50) is under 1000 nM.

Take `COc1cc(C(=O)NC2CCN(Cc3ccccc3)CC2)ccc1Nc1ncc2c(n1)N(c1ccccc1C)CCC(=O)N2C` [compound 310, N-(1-Benzyl-piperidin-4-yl)-3-methoxy-4-(5-methyl-6-oxo-9-o-tolyl-6,7,8,9-tetrahydro-5H-pyrimido[4,5-b][1,4]diazepin-2-ylamino)-benzamide]: the half-inhibitory concentration (IC50) is under 10000 nM.

The same test, now with this note: Table 3; read-out: PLK1 IC50.
For the compound `CCN1CCN([C@H]2CC[C@H](NC(=O)c3ccc(Nc4ncc5c(n4)N(C4CCCC4)CC4(CC4)C(=O)N5C)c(OC)c3)CC2)CC1` [Compound 379, 4-(9′-cyclopentyl-5′-methyl-6′-oxo-5′,6′,8′,9′-tetrahydrospiro[cyclopropane-1,7′-pyrimido[4,5-b][1,4]diazepine]-2′-ylamino)-N-((trans)-4-(4-ethylpiperazin-1-yl)cyclohexyl)-3-methoxybenzamide], the IC50 was under 100 nM.

Regarding `COc1cc(C(=O)N[C@H]2CC[C@H](N3CCN(C)CC3)CC2)ccc1Nc1ncc2c(n1)N(C1CCCC1)CC1(CC1)C(=O)N2C` [Compound 384, 4-(9′-cyclopentyl-5′-methyl-6′-oxo-5′,6′,8′,9′-tetrahydrospiro[cyclopropane-1,7′-pyrimido[4,5-b][1,4]diazepine]-2′-ylamino)-N-((trans)-4-(4-methylpiperazin-1-yl)cyclohexyl)-3-methoxybenzamide], the IC50 was under 100 nM.
